For experiment [1], the target named is interaction between PD-1 and PD-L1 (Homo sapiens (Human), UniProt Q9NZQ7). Kind of experiment: PD1-PDL1 HTRF binding activity test (Cisbio PD-1/PD-L1 binding assay kit). The following applies: read-out: PD1-PDL1 HTRF Binding Activity IC50. Background: In TR-FRET formats the signal depends on donor and acceptor labels being close together.
The target in experiment [2] is interaction between PD-1 and PD-L1 expressed on cell surfaces (Homo sapiens (Human), UniProt Q9NZQ7). Kind of experiment: Jurkat reporter gene cellular assay (Jurkat/NF-κB-luc/PD1 cells cocultured with Raji-PD-L1 cells, OKT-3 stimulation). In kind it is cell-based. The following applies: NF-κB-luc reporter activation fold, 6 hrs; read-out: Cell Activity EC50. A digest of the protocol: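 Jurkat cells stably expressing human PD-1 and NF-κB-luciferase were cocultured with Raji cells stably expressing human PD-L1 under OKT-3 stimulation, with compound present. Luminescence was read after 6 h.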
Chain of interaction between PD-1 and PD-L1 expressed on cell surfaces (Q9NZQ7 19-290): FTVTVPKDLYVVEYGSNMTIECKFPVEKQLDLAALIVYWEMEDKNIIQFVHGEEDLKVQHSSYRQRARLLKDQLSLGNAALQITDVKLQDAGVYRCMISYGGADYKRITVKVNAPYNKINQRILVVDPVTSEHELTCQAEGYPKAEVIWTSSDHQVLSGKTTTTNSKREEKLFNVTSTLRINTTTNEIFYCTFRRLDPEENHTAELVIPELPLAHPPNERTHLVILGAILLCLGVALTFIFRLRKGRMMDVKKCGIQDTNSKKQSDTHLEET

Chain of interaction between PD-1 and PD-L1 (Q9NZQ7 19-238): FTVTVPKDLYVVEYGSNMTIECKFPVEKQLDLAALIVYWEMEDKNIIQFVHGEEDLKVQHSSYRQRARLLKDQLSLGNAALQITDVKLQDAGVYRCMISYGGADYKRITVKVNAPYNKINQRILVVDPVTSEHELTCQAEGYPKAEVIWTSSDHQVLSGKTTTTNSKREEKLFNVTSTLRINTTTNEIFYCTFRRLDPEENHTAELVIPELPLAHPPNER

A word on the IC50: it is the concentration at which inhibition is half-maximal. A word on the EC50: it is the concentration giving half of the maximal effect. With `COc1cc(C(=O)Nc2cccc(-c3cccc(NC(=O)c4cc(OC)c(CN[C@H](CCO)C(=O)O)cn4)c3C)c2C)ncc1CN[C@H](CCO)C(=O)O` [Example 71], the IC50 in experiment [1] amounted to 0.33 nM. In addition, the EC50 in experiment [2] stood at 756 nM.
Take `COc1cc(C(=O)Nc2cccc(-c3cccc(NC(=O)c4cc(OC)c(CN[C@@H]5COC(=O)C5)cn4)c3C)c2C)ncc1CN[C@@H]1COC(=O)C1` [Example 72, N,N'-(2,2′-dimethyl-[1,1′-biphenyl]-3,3′-diyl)bis(4-methoxy-5-((((S)-5-oxotetrahydrofuran-3-yl)amino)methyl)picolinamide)]: the concentration for half-maximal inhibition (IC50) in experiment [1] worked out at 0.48 nM. The EC50 in experiment [2] worked out at 1560 nM.
For `COc1cc(C(=O)Nc2cccc(-c3cccc(NC(=O)c4cc(OC)c(CN[C@H](CO)CC(=O)O)cn4)c3C)c2C)ncc1CN[C@H](CO)CC(=O)O` [Example 73, (3S,3′S)-3,3′-((((((2,2′-dimethyl-[1,1′-biphenyl]-3,3′-diyl)bis(azanediyl))bis(carbonyl))bis (4-methoxypyridine-6,3-diyl))bis (methylene))bis(azanediyl))bis(4-hydroxybutanoic acid)] the same measures were 0.29 nM and 812 nM.
On to `COc1cc(C(=O)Nc2cccc(-c3cccc(NC(=O)c4cc(OC)c(CN[C@H]5COC(=O)C5)cn4)c3C)c2C)ncc1CN[C@H]1COC(=O)C1` [Example 74], for which the IC50 in experiment [1] was 0.14 nM. Besides, the half-maximal effective concentration (EC50) in experiment [2] worked out at 303 nM.
Turning to `COc1cc(C(=O)Nc2cccc(-c3cccc(NC(=O)c4cc(OC)c(CN[C@@H](CO)CC(=O)O)cn4)c3C)c2C)ncc1CN[C@@H](CO)CC(=O)O` [Example 75], the IC50 in experiment [1] is 0.36 nM. For the same compound, the EC50 in experiment [2] came out at 782 nM.
Consider `COC[C@@H](NCc1cnc(C(=O)Nc2cccc(-c3cccc(NC(=O)c4cc(OC)c(CN[C@H](COC)C(=O)OC)cn4)c3C)c2C)cc1OC)C(=O)OC` [Example 76, dimethyl 2,2′-((((((2,2′-dimethyl-[1,1′-biphenyl]-3,3′-diyl)bis(azanediyl))bis(carbonyl))bis (4-methoxypyridine-6,3-diyl))bis(methylene))bis(azanediyl))(2R,2′R)-bis(3-methoxypropanoate)], for which the IC50 in experiment [1] was 7.8 nM. In experiment [2], the EC50 worked out at 3060 nM.
In the case of `COC[C@@H](NCc1cnc(C(=O)Nc2cccc(-c3cccc(NC(=O)c4cc(OC)c(CN[C@H](COC)C(=O)O)cn4)c3C)c2C)cc1OC)C(=O)O` [Example 77, (2R,2′R)-2,2′-((((((2,2′-dimethyl-[1,1′-biphenyl]-3,3′-diyl)bis(azanediyl))bis(carbonyl))bis(4-methoxypyridine-6,3-diyl))bis(methylene))bis (azanediyl))bis(3-methoxypropanoic acid)], the IC50 in experiment [1] amounted to 0.41 nM. The 50% effective concentration (EC50) in experiment [2] came out at 297 nM.
On to `COC[C@H](NCc1cnc(C(=O)Nc2cccc(-c3cccc(NC(=O)c4cc(OC)c(CN[C@@H](COC)C(=O)OC)cn4)c3C)c2C)cc1OC)C(=O)OC` [Example 78, dimethyl 2,2′-((((((2,2′-dimethyl-[1,1′-biphenyl]-3,3′-diyl)bis(azanediyl))bis(carbonyl))bis(4-methoxypyridine-6,3-diyl))bis(methylene))bis (azanediyl))(2S,2′S)-bis(3-methoxypropanoate)], for which the half-maximal inhibitory concentration (IC50) in experiment [1] turned out to be 10.9 nM. In addition, the concentration for a half-maximal effect (EC50) in experiment [2] came to 2910 nM.
For `COC[C@H](NCc1cnc(C(=O)Nc2cccc(-c3cccc(NC(=O)c4cc(OC)c(CN[C@@H](COC)C(=O)O)cn4)c3C)c2C)cc1OC)C(=O)O` [Example 79, (2S,2′S)-2,2′-((((((2,2′-dimethyl-[1,1′-biphenyl]-3,3′-diyl)bis(azanediyl))bis(carbonyl))bis(4-methoxypyridine-6,3-diyl))bis(methylene))bis (azanediyl))bis(3-methoxypropanoic acid)] the same measures were 0.65 nM and 171 nM.
As to `COc1cc(C(=O)Nc2cccc(-c3cccc(NC(=O)c4cc(OC)c(CNCCS(C)(=O)=O)cn4)c3C)c2C)ncc1CNCCS(C)(=O)=O` [Example 80, N,N'-(2,2′-dimethyl-[1,1′-biphenyl]-3,3′-diyl)bis(4-methoxy-5-(((2-(methylsulfonyl)ethyl)amino)methyl)picolinamide)], the IC50 in experiment [1] amounted to 0.082 nM. Further, the EC50 in experiment [2] stood at 3740 nM.
As to `COc1cc(C(=O)Nc2cccc(-c3cccc(NC(=O)c4cc(OC)c(CNCC[S+](C)[O-])cn4)c3C)c2C)ncc1CNCC[S+](C)[O-]` (stereo not shown) [Example 81, N,N'-(2,2′-dimethyl-[1,1′-biphenyl]-3,3′-diyl)bis(4-methoxy-5-(((2-(methylsulfinyl)ethyl)amino)methyl)picolinamide)], the IC50 in experiment [1] worked out at 0.43 nM. In addition, the concentration for a half-maximal effect (EC50) in experiment [2] was determined as 900 nM.
`COC(=O)[C@H]1CCN(Cc2cnc(C(=O)Nc3cccc(-c4cccc(NC(=O)c5cc(OC)c(CN6CC[C@H](C(=O)OC)C6)cn5)c4C)c3C)cc2OC)C1` [Example 82, dimethyl 1,1′-(((((2,2′-dimethyl-[1,1-biphenyl]-3,3′-diyl)bis(azanediyl))bis(carbonyl))bis(4-methoxypyridine-6,3-diyl))bis(methylene))(3S,3′S)-bis(pyrrolidine-3-carboxylate)]: in experiment [1], the half-maximal inhibitory concentration (IC50) is 1.9 nM. Further, the EC50 in experiment [2] turned out to be 566 nM.
On the same counts, the results for `COc1cc(C(=O)Nc2cccc(-c3cccc(NC(=O)c4cc(OC)c(CN5CC[C@H](C(=O)O)C5)cn4)c3C)c2C)ncc1CN1CC[C@H](C(=O)O)C1` [Example 83, (3S,3′S)-1,1′-(((((2,2′-dimethyl-[1,1′-biphenyl]-3,3′-diyl)bis(azanediyl))bis(carbonyl))bis(4-methoxypyridine-6,3-diyl))bis(methylene))bis (pyrroidine-3-carboxylic acid)] are 1.04 nM and 309 nM.
With `COC(=O)C1CCN(Cc2cnc(C(=O)Nc3cccc(-c4cccc(NC(=O)c5cc(OC)c(CN6CCC(C(=O)OC)CC6)cn5)c4C)c3C)cc2OC)CC1` [Example 84, dimethyl 1,1′-(((((2,2′-dimethyl-[1,1′-biphenyl]-3,3′-diyl)bis(azanediyl))bis(carbonyl))bis(4-methoxypyridine-6,3-diyl))bis(methylene))bis(piperidine-4-carboxylate)], in experiment [1], the IC50 was 1.36 nM. Moreover, in experiment [2], the half-maximal effective concentration (EC50) came out at 603 nM.
For `COc1cc(C(=O)Nc2cccc(-c3cccc(NC(=O)c4cc(OC)c(CN5CCC(C(=O)O)CC5)cn4)c3C)c2C)ncc1CN1CCC(C(=O)O)CC1` [Example 85, 1,1′-(((((2,2′-dimethyl-[1,1′-biphenyl]-3,3′-diyl)bis(azanediyl))bis(carbonyl))bis (4-methoxypyridine-6,3-diyl))bis(methylene))bis (piperidine-4-carboxylic acid)] the same measures were 0.45 nM and 341 nM.
For `COc1cc(C(=O)Nc2cccc(-c3cccc(NC(=O)c4cc(OC)c(CN[C@H](CO)C(N)=O)cn4)c3C)c2C)ncc1CN[C@H](CO)C(N)=O` [Example 86, N,N′-(2,2′-dimethyl-[1,1′-biphenyl]-3,3′-diyl)bis(5-((((R)-1-amino-3-hydroxy-1-oxopropan-2-yl)amino)methyl)-4-methoxypicolinamide)] the same measures were 1.34 nM and 406 nM.
For `CCNC(=O)[C@@H](CO)NCc1cnc(C(=O)Nc2cccc(-c3cccc(NC(=O)c4cc(OC)c(CN[C@H](CO)C(=O)NCC)cn4)c3C)c2C)cc1OC` [Example 87] the same measures were 1.08 nM and 800 nM.

(Values after patent US11459339B2, “Biaryl derivative, preparation method thereof and pharmaceutical application thereof” (Abbisko Therapeutics Co., Ltd., priority 2018, dated 2022).)
